Tests used:
[1] = molecular target: cGMP-dependent 3',5'-cyclic phosphodiesterase (Homo sapiens) (UniProt O00408); experiment: Inhibition of phosphodiesterase 2 at 200 uM
Phosphodiesterase 1 [2] = molecular target: T1, Phosphodiesterase 1 (Homo sapiens, UniProt P54750+Q01064+Q14123); experiment: Inhibition of phosphodiesterase 1 at 200 uM; format: protein assay
[3] = molecular target: Phosphodiesterase 3 (Homo sapiens) (UniProt Q14432+Q13370); experiment: Inhibition of phosphodiesterase 3 at 200 uM; format: protein assay
[4] = molecular target: cGMP-specific 3',5'-cyclic phosphodiesterase (Homo sapiens) (UniProt O76074); experiment: Inhibition of phosphodiesterase 5 at 200 uM
Phosphodiesterase 4 [5] = molecular target: T2, Phosphodiesterase 4 (Homo sapiens, UniProt P27815+Q08499+Q07343+Q08493); experiment: Binding activity towards Rolipram binding site of phosphodiesterase 4; format: protein assay
Phosphodiesterase 4 [6] = molecular target: T2, Phosphodiesterase 4; experiment: In vitro binding activity towards catalytic site of phosphodiesterase 4; format: protein assay
Phosphodiesterase 4 [7] = molecular target: T2, Phosphodiesterase 4; experiment: Ratio of binding activity at catalytic site to Rolipram binding site of PDE4; format: protein assay
Phosphodiesterase 4 [8] = molecular target: T2, Phosphodiesterase 4; experiment: Binding activity towards Rolipram binding site of phosphodiesterase 4 at concentration 10 uM; format: protein assay
Phosphodiesterase 1 [9] = molecular target: T1, Phosphodiesterase 1; experiment: Inhibition of phosphodiesterase 1 at 20 uM; format: protein assay
[10] = molecular target: cGMP-dependent 3',5'-cyclic phosphodiesterase (Homo sapiens) (UniProt O00408); conditions: 200 uM
Phosphodiesterase 4 [11] = molecular target: T2, Phosphodiesterase 4; experiment: Inhibition of phosphodiesterase 4; format: protein assay
Phosphodiesterase 4 [12] = molecular target: T2, Phosphodiesterase 4; experiment: Inhibition of Rolipram binding to phosphodiesterase 4 at 100 uM; format: protein assay
Phosphodiesterase 4 [13] = molecular target: T2, Phosphodiesterase 4; experiment: Inhibition of phosphodiesterase 4 at 200 uM; format: protein assay
Phosphodiesterase 4 [14] = molecular target: T2, Phosphodiesterase 4; experiment: Inhibition of phosphodiesterase 4 at 20 uM; format: protein assay
Phosphodiesterase 4 [15] = molecular target: T2, Phosphodiesterase 4; experiment: Inhibition of Rolipram binding to phosphodiesterase 4 at 20 uM; format: protein assay
Phosphodiesterase 4 [16] = molecular target: T2, Phosphodiesterase 4; experiment: Inhibition of Rolipram binding to phosphodiesterase 4; format: protein assay; conditions: concentration not given here
Phosphodiesterase 4 [17] = molecular target: T2, Phosphodiesterase 4; experiment: Inhibition of Rolipram binding to phosphodiesterase 4 at 1 uM; format: protein assay

Sequence of cGMP-dependent 3',5'-cyclic phosphodiesterase (Homo sapiens) (O00408 whole entry): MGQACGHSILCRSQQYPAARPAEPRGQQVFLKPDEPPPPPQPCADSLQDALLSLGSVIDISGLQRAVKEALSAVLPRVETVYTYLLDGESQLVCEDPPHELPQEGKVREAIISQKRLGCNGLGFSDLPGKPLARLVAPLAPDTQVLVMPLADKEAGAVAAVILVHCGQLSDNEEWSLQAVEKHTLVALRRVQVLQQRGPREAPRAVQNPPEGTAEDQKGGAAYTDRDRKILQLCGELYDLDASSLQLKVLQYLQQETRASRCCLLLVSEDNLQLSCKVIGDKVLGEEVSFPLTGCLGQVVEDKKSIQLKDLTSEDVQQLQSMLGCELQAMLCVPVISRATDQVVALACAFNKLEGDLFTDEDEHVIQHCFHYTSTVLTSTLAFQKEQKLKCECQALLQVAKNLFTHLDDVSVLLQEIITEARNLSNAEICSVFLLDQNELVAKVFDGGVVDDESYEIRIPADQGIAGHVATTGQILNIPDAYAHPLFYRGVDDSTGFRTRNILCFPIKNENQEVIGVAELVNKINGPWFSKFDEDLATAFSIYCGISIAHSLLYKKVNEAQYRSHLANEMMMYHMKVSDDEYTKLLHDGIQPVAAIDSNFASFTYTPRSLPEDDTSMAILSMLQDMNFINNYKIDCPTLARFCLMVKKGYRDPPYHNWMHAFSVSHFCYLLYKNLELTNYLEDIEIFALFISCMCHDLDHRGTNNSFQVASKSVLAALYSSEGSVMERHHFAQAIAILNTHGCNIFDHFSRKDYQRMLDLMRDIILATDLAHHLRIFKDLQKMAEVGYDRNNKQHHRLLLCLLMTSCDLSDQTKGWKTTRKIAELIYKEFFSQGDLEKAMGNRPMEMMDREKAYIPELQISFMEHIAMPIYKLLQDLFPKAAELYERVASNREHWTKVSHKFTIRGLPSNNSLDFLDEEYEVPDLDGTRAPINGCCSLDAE

## COc1ccc(C(=O)NC2CCc3ccccc32)cc1OC (stereo unspecified)
[1]
  inhibition: 37%
Phosphodiesterase 1 [2]
  inhibition: 14%
[3]
  inhibition: 53%
[4]
  inhibition: 24%
Phosphodiesterase 4 [5]
  IC50: 3 µM
Phosphodiesterase 4 [6]
  IC50: 11 µM
Phosphodiesterase 4 [7]
  Ratio: 3.7

## COc1ccc(S(=O)(=O)N(CC(C)=O)Cc2ccco2)cc1OC
Phosphodiesterase 4 [5]
  IC50: 35 µM
Phosphodiesterase 4 [6]
  IC50: 24 µM
Phosphodiesterase 4 [7]
  Ratio: 0.69

## COc1ccc(S(=O)(=O)N(CCC#N)CC2CCCO2)cc1OC (stereo unspecified)
Phosphodiesterase 4 [5]
  IC50: 112 µM
Phosphodiesterase 4 [6]
  IC50: 19 µM
Phosphodiesterase 4 [7]
  Ratio: 0.17

## COc1ccc(S(=O)(=O)N(CCC#N)C2CCc3ccccc32)cc1OC (stereo unspecified)
Phosphodiesterase 4 [6]
  IC50: 4.1 µM
Phosphodiesterase 4 [8]
  inhibition: 26%
Phosphodiesterase 4 [7]
  Ratio: < 0.4

## COc1ccc(S(=O)(=O)N(Cc2ccccn2)C2CCc3ccccc32)cc1OC (stereo unspecified)
Phosphodiesterase 4 [6]
  IC50: 5.3 µM
Phosphodiesterase 4 [8]
  inhibition: 12%
Phosphodiesterase 4 [7]
  Ratio: < 0.5

## COc1ccc(C2CNC(=O)C2)cc1OC1CCCC1 (stereo unspecified) [ROLIPRAM]
Phosphodiesterase 1 [9]
  IC50: > 200 µM
[3]
  inhibition: 27%
[10]
  inhibition: 28%

## COc1ccc(S(=O)(=O)N(Cc2cccnc2)S(=O)(=O)CCNS(=O)(=O)c2ccccc2)cc1OC
Phosphodiesterase 4 [5]
  IC50: 24 µM
Phosphodiesterase 4 [6]
  IC50: 3 µM
Phosphodiesterase 4 [7]
  Ratio: 0.13

## COc1ccc(S(=O)(=O)N(CCC#N)C2CCCc3ccccc32)cc1OC (stereo unspecified)
Phosphodiesterase 4 [6]
  IC50: 6.4 µM
Phosphodiesterase 4 [8]
  inhibition: 30%
Phosphodiesterase 4 [7]
  Ratio: < 0.6

## CCCN(Cc1ccc(C(=O)NC)cc1)S(=O)(=O)c1ccc(OC)c(OC)c1
Phosphodiesterase 4 [5]
  IC50: 4.3 µM
Phosphodiesterase 4 [6]
  IC50: 1.9 µM
Phosphodiesterase 4 [7]
  Ratio: 0.44

## COc1ccc(S(=O)(=O)n2c(-c3ccccc3)cc3ncccc3c2=O)cc1OC
Phosphodiesterase 4 [11]
  IC50: 1.5 µM
Phosphodiesterase 4 [8]
  inhibition: 20%

## COc1ccc(S(=O)(=O)N2CCc3ccccc32)cc1OC
Phosphodiesterase 4 [6]
  IC50: 4.3 µM
Phosphodiesterase 4 [8]
  inhibition: 18%
Phosphodiesterase 4 [7]
  Ratio: < 0.43

## COc1ccc(S(=O)(=O)NCc2cccnc2)cc1OC
Phosphodiesterase 4 [12]
  inhibition: 41%
Phosphodiesterase 4 [13]
  inhibition: 39%

## COc1ccc(S(=O)(=O)N(Cc2cccnc2)C2CCc3ccccc32)cc1OC (stereo unspecified)
Phosphodiesterase 4 [6]
  IC50: 9 µM
Phosphodiesterase 4 [8]
  inhibition: 20%
Phosphodiesterase 4 [7]
  Ratio: < 0.9

## COc1ccc(S(=O)(=O)NC2CCCC2)cc1OC
Phosphodiesterase 4 [6]
  IC50: 100 µM
Phosphodiesterase 4 [12]
  inhibition: 19%
Phosphodiesterase 4 [7]
  Ratio: < 1

## COc1ccc(S(=O)(=O)N(CCC#N)Cc2ccco2)cc1OC1CCCC1
Phosphodiesterase 4 [5]
  IC50: 10 µM
Phosphodiesterase 4 [14]
  inhibition: 32%
Phosphodiesterase 4 [7]
  Ratio: > 1

## COC(=O)CN(Cc1ccco1)S(=O)(=O)c1ccc(OC)c(OC)c1
Phosphodiesterase 4 [6]
  IC50: 10 µM
Phosphodiesterase 4 [12]
  inhibition: 23%
Phosphodiesterase 4 [7]
  Ratio: < 1

## COc1ccc(S(=O)(=O)n2ccc3ccccc3c2=O)cc1OC
Phosphodiesterase 4 [15]
  IC50: 4 µM
Phosphodiesterase 4 [11]
  IC50: 0.5 µM

## COc1ccc(S(=O)(=O)N(CC#N)Cc2ccco2)cc1OC
Phosphodiesterase 4 [8]
  inhibition: 36%
Phosphodiesterase 4 [14]
  inhibition: 30%
Phosphodiesterase 4 [7]
  Ratio: > 1

## COc1ccc(S(=O)(=O)N(Cc2cccnc2)S(C)(=O)=O)cc1OC1CCCC1
Phosphodiesterase 4 [5]
  IC50: 4.5 µM
Phosphodiesterase 4 [6]
  IC50: 2 µM
Phosphodiesterase 4 [7]
  Ratio: 0.44

## COc1ccc(S(=O)(=O)n2c(-c3ccccc3)cc3ccccc3c2=O)cc1OC
Phosphodiesterase 4 [11]
  IC50: 0.6 µM
Phosphodiesterase 4 [8]
  inhibition: 31%

## COc1ccc(S(=O)(=O)N(Cc2ccccc2)Cc2cccnc2)cc1OC
Phosphodiesterase 4 [6]
  IC50: 5 µM
Phosphodiesterase 4 [16]
  inhibition: 8%
Phosphodiesterase 4 [7]
  Ratio: < 1

## COc1ccc2c(c1)C(NS(=O)(=O)c1ccc(OC)c(OC)c1)CC2 (stereo unspecified)
Phosphodiesterase 4 [6]
  IC50: 2.5 µM
Phosphodiesterase 4 [8]
  inhibition: 2%
Phosphodiesterase 4 [7]
  Ratio: < 0.25

## CCCN(Cc1ccco1)S(=O)(=O)c1ccc(OC)c(OC)c1
Phosphodiesterase 4 [5]
  IC50: 15 µM
Phosphodiesterase 4 [6]
  IC50: 1.5 µM
Phosphodiesterase 4 [7]
  Ratio: 0.1

## COc1ccc(S(=O)(=O)N(Cc2cccnc2)S(C)(=O)=O)cc1OCCCCCc1ccccc1
Phosphodiesterase 4 [6]
  IC50: 1.5 µM
Phosphodiesterase 4 [17]
  inhibition: 18%
Phosphodiesterase 4 [7]
  Ratio: < 1

## COc1ccc(S(=O)(=O)N(Cc2cccnc2)S(C)(=O)=O)cc1OC
Phosphodiesterase 4 [5]
  IC50: 50 µM
Phosphodiesterase 4 [6]
  IC50: 6 µM
Phosphodiesterase 4 [7]
  Ratio: 0.12

## COc1ccc(S(=O)(=O)NC2CCc3ccccc32)cc1OC (stereo unspecified)
Phosphodiesterase 4 [6]
  IC50: 6 µM
Phosphodiesterase 4 [8]
  inhibition: 12%
Phosphodiesterase 4 [7]
  Ratio: < 0.6

## COc1ccc(S(=O)(=O)N(CCCC#N)Cc2ccco2)cc1OC
Phosphodiesterase 4 [6]
  IC50: 9 µM
Phosphodiesterase 4 [8]
  inhibition: 37%
Phosphodiesterase 4 [7]
  Ratio: < 1

## COc1ccc(S(=O)(=O)N(Cc2ccccc2)Cc2ccccn2)cc1OC
Phosphodiesterase 4 [6]
  IC50: 7.8 µM
Phosphodiesterase 4 [8]
  inhibition: 5%
Phosphodiesterase 4 [7]
  Ratio: < 0.7

## COc1ccc(C(=O)N2CCCc3ccccc32)cc1OC
[1]
  inhibition: 21%
Phosphodiesterase 1 [2]
  inhibition: 14%
[3]
  inhibition: 31%
[4]
  inhibition: 12%
Phosphodiesterase 4 [6]
  IC50: 20 µM
Phosphodiesterase 4 [8]
  inhibition: 15%
Phosphodiesterase 4 [7]
  Ratio: < 1

## COc1ccc(S(=O)(=O)N(CCC#N)Cc2ccco2)cc1OC
Phosphodiesterase 4 [6]
  IC50: 10 µM
Phosphodiesterase 4 [8]
  inhibition: 37%
Phosphodiesterase 4 [7]
  Ratio: < 1

## COc1ccc(S(=O)(=O)NCCC#N)cc1OC
Phosphodiesterase 4 [5]
  IC50: 50 µM
Phosphodiesterase 4 [11]
  IC50: 17.6 µM

## COc1ccc(S(=O)(=O)n2c(=O)cc(-c3ccccc3)c3ccccc32)cc1OC
Phosphodiesterase 4 [11]
  IC50: 0.5 µM
Phosphodiesterase 4 [8]
  inhibition: 14%

## COc1ccc(S(=O)(=O)NC2CCc3cc(Cl)ccc32)cc1OC (stereo unspecified)
Phosphodiesterase 4 [6]
  IC50: 5.2 µM
Phosphodiesterase 4 [8]
  inhibition: 12%
Phosphodiesterase 4 [7]
  Ratio: < 0.5
